Laboratory results taken from patent publication EP4810518A2, “ANTIBODY THAT BINDS ERBB-2 AND ERBB-3” (Merus B.V., priority 2017, dated 2018).

Columns and labels:
[1] = tested on: HER2 overexpressing cells (SK-BR-3, BT-474, N87); test: In vitro drug combinations with PB4188 (checkerboard titrations, isobolograms); assay type: cell-based; details: HRG in matrigel or HRG stress concentrations
Method: Moreover, combination with chemotherapeutic drugs and cyclin inhibitors were tested. Combinations were tested on HER2 overexpressing cells growing in the presence of HRG in matrigel (SK-BR-3 and BT-474) or in the presence of HRG stress concentrations (N87 and SK-BR-3 as described in proliferation assays). The inhibitory effect of drug combinations was tested by imaging or by measuring proliferation using Alamar Blue as described herein before. […] The extent of growth inhibition obtained with each combination was calculated. […] The inhibition values of the combination experiments were used by CHALICE™ Analyzer software to generate the isobolograms.

[2] = tested on: intracranial ST1360B PDX tumors
From the text: Mice carrying ST1360B tumors were supplemented with estrogen following tumor implantation. The tumor was washed with PBS and trimmed for residual connective tissues at the surface. The tumor was cut into small pieces and digested with Accutase and Collagenase IV to yield a suspension of single cells. The digestion was stopped by addition of media containing fetal bovine serum and the cell suspension was filtered through a 100 µm filter, washed in PBS and resuspended in PBS. The viability of the tumor cells was checked by trypan blue staining and the final concentration was 18 million viable cells/mL. The viability of total cells was greater than 80%. There was no differentiation between stromal or tumor cells and the solutions do also contain some cell debris. […] The cells were kept on ice until inoculation.
Mice were anaesthetized by hypnorm/midazolam (1 ml/100 g body weight) and placed in a stereotactic frame for fixation of the head. A longitudinal incision was made in the scalp exposing the calvarium. A hole was drilled in the skull 1.5 mm right of the sutura saggitalis and 0.5 mm posterior to the bregma using a microdrill. Ten µl of the cell suspension (180.000 cells) was injected at a depth of 2-2.5 mm at a rate of 60 nl/sec using a 100 µl syringe with a 25-gauge needle placed in a micro infusion pump. The needle was left for 3 minutes before being withdrawn. Bupivacaine (0.2 mg/100 g bodyweight) and Lidocaine (1 mg/100 g body weight) were administrated in the incision site for local anesthetic and the skin was closed with a suture. The mice were ear punched for identification and returned to their cages where they were monitored until fully recovered from the anesthesia. The mice were monitored at least twice per week (weight and clinical signs) after tumor inoculation and more often if clinical signs or weight loss was present.
Tumor development was monitored bi-weekly by T2-weighted MR imaging (axial and coronal planes). The first imaging session was 19 days after tumor inoculation. The animals were anesthetized during the MR imaging sessions (sevoflurane, 2-4% in ambient air supplemented with 100% O2 at approximately 4:1 ratio). Enrolment into study was based on two pathological MR scans showing tumor growth and a tumor volume of about 10-20 mm^3. Mice that meet the enrolment criteria were randomized into one of four groups. The first 32 mice that meet the inclusion criteria were enrolled into the study. Mice were randomized so all groups presented with the same mean tumor volume at treatment initiation.
Drugs were diluted in sterile saline before each dosing. Mice were placed under a heating lamp for approximately 5-10 minutes before injection of the test compound to make the procedure as quick and easy as possible. The mouse was placed on a tail restrain box and the test compound was dosed in the lateral tail vein as a single intravenous (i.v.) bolus dose. The dosing volume was 5.0mL/kg.
Tumor growth were monitored bi-weekly by T2-weighted MR imaging (axial and coronal planes) for the first two weeks after therapy initiation and weekly until 6 weeks after therapy. The animals were anesthetized during the MR imaging sessions (sevoflurane, 2-4% in ambient air supplemented with 100% O2 at approximately 4:1 ratio).
The brain with tumor was resected and preserved in 4% formaldehyde for 24-48 hours and transferred to 70% ethanol. The fixative: tissue ratio was at least 20:1.
Tumor volumes were measured on the images by drawing region of interests (ROIs) on the individual slices and calculating the volume of the ROIs.

Row | Compound | Drug combination with PB4188 (isobologram analysis) [1] | other results
1 | Cc1nc(NC(=O)N2CCC[C@H]2C(N)=O)sc1-c1ccnc(C(C)(C)C(F)(F)F)c1 [BYL719] | synergistic | 
2 | NC1(c2ccc(-c3nc4ccn5c(=O)[nH]nc5c4cc3-c3ccccc3)cc2)CCC1 [MK-2206] | synergistic | 
3 | CO[C@H]1C[C@@H]2CC[C@@H](C)[C@@](O)(O2)C(=O)C(=O)N2CCCC[C@H]2C(=O)O[C@H]([C@H](C)C[C@@H]2CC[C@@H](OCCO)[C@H](OC)C2)CC(=O)[C@H](C)/C=C(\C)[C@@H](O)[C@@H](OC)C(=O)[C@H](C)C[C@H](C)/C=C/C=C/C=C/1C [everolimus] | synergistic | 
4 | CS(=O)(=O)CCNCc1ccc(-c2ccc3ncnc(Nc4ccc(OCc5cccc(F)c5)c(Cl)c4)c3c2)o1 [lapatinib] | synergistic | 
5 | CCOc1cc2ncc(C#N)c(Nc3ccc(OCc4ccccn4)c(Cl)c3)c2cc1NC(=O)/C=C/CN(C)C [neratinib] | synergistic | 
6 | CC(=O)O[C@H]1C(=O)[C@@]2(C)[C@H]([C@H](OC(=O)c3ccccc3)[C@]3(O)C[C@H](OC(=O)[C@H](O)[C@@H](NC(=O)c4ccccc4)c4ccccc4)C(C)=C1C3(C)C)[C@]1(OC(C)=O)CO[C@@H]1C[C@@H]2O [paclitaxel] | synergistic | 
7 | O=C(CCCCCCC(=O)Nc1ccccc1)NO [vorinostat] | synergistic | 
8 | T-DM1 |  | Tumor growth by T2-weighted MRI ([2]; compared to vehicle treated mice): inhibited; mean tumor volume 10 days post therapy ([2]; compared to vehicle treated mice, p<0.05, Tukey): significantly smaller compared to vehicle treated mice; Brain edema score day 3 ([2]; individual mouse, scale 0-4 (0 no, 4 massive brain edema), day 3 post initiation of therapy): 0; median survival ([2]; post therapy initiation, T-DM1 10 mg/kg 4x qwk i.v., MCLA-128 25 mg/kg 4x twice wk i.v., vehicle 13 days): 19.5 days
